Assays:
[1] = system: HIV-1 in treatment naive patients; assay: Clinical study AI424-034, virological outcomes and resistance; assay type: in vivo, human; details: study 034
From the text: (§1) Study Population. Viral samples (baseline and on-treatment, where available) were obtained from patients who experienced virologic failure while enrolled in studies AI424-007/041 [12] (ATV+d4T and ddI), AI424-008/044 [13, 14] (ATV+d4T and 3TC) and AI424-034 [9] (ATV or EFV in combination with ZDV and 3TC). […] In general, virologic failure specimens were selected for further resistance evaluation only if they contained >1,000 copies/mL HIV-1 RNA and there was no indication that the specimen came from a patient at a time of transient non-adherence to study drug(s). […] For non-responders, samples from week 16 (or 24) were tested. Drug adherence was determined from pill counts of returned study medications at each scheduled visit.
(§2) ATV resistance was defined as ≧2-fold decrease in ATV susceptibility from baseline, a Fold Change (FC) of ≧2.5 (relative to the Nl4-3 reference strain), or evidence of an isoleucine (Ile) to leucine (Leu) change at amino acid residue 50 (I50L). Resistance levels for NFV and EFV were also defined as a FC reaching 2.5.

[2] = system: clinical isolates from patients on NFV regimens; details: isolates containing D30N as the only primary PI mutation; cited from earlier work
[3] = system: clinical isolates containing an I50L substitution (and their baseline isolates); assay: PhenoSense phenotypic susceptibility of clinical isolates from ATV-treated patients who developed I50L; assay type: cell-based, HIV-1; details: for Subceptibility, Fold Change in EC50 relative to reference strain: Subject 169, Week 114; for median increase in susceptibility from baseline: on emergence of I50L, n=4 to 15; for percentage of I50L isolates with susceptibility (FC) 0.4-fold or lower: relative to the reference strain
From the text: as §1
(§3) Drug Susceptibility Assays. Clinical isolates were subjected to phenotypic (PhenoSense™) and genotypic (GeneSeq™) analysis by Virologic, Inc. as described elsewhere.

[4] = system: HIV-1 variants containing I50V; details: in vitro; cited from earlier work
[5] = system: recombinant HIV-1 viruses (NL4-3, RF, LAI) in MT-2 cells; assay: MT-2 cell susceptibility assay of recombinant viruses; assay type: cell-based; details: all three viral strains, I50L or I50L/A71V introduced by site-directed mutagenesis
Procedure: Cells and Viruses. MT-2 cells, HIV-1 RF, HIV1-LAI, and the HIV-1 NL4-3 proviral clones were obtained through the AIDS Research and Reference Reagent Program, National Institutes of Health. MT-2 cells were cultured in RPMI 1640 medium supplemented with 10% fetal bovine serum, 2 mM L-glutamine, and 10 mM Hepes buffer. HIV-1 viruses were generated by transient transfection of the proviral DNA into Human Embryonic Kidney 293 cells using Lipofectamine reagents (Gibco BRL). The viruses were harvested 72 hr post-transfection, amplified in MT-2 cells, and titered in the same cells using a virus yield assay.
Recombinant HIV-1 Variants and Chimeric NL4-3 Proviral Clones. HIV-1 strains with defined substitutions in the protease gene were generated by QuikChange® site-directed mutagenesis as recommended by the manufacturer (Stratagene). Recombinant NL4-3 and LAI proviral clones containing the wild-type and mutant protease genes from RF and clinical isolates were constructed by replacing the SseI/ApaI fragment of pNL4-3 with the appropriate SseI/ApaI protease fragments.
Recombinant viruses (generated separately from those made for PhenoSense assays) were tested in an MT-2 cell susceptibility assay at Bristol Myers Squibb. MT-2 cells were infected with recombinant viruses at a multiplicity of infection (MOI) of 0.005 50% tissue culture infective doses (TCID50)/cell followed by incubation in the presence or absence of serially diluted protease inhibitors for 4 to 7 days. Virus yields were quantified using a RT assay as previously described. The results from at least four independent experiments were used to calculate the EC50.

[6] = system: clinical isolates containing a D30N substitution; assay: PhenoSense phenotypic susceptibility of clinical isolates containing D30N; assay type: cell-based, HIV-1; details: 75 D30N containing isolates, FIG. 3
Procedure: as §3
Comparative Studies of I50L and D30N Containing Viruses. […] Comparative studies were performed on the 18 phenotyped viruses containing an I50L and 75 clinical isolates containing a D30N substitution without evidence of cross-resistance (FC≧2.5) to other PIs.

[7] = system: HIV-1 in treatment naive patients; assay: Clinical study AI424-007/041, virological outcomes and resistance; assay type: in vivo, human; details: study 007/041
From the text: as §1, §2

[8] = system: HIV-1 in treatment naive patients; assay: Clinical study AI424-008/044, virological outcomes and resistance; assay type: in vivo, human; details: study 008/044
From the text: as §1, §2

SMILES	Susceptibility, Fold Change in EC50 relative to reference strain ([3]; Subject 076, Week 80) [Fold Change]	Susceptibility, Fold Change in EC50 relative to reference strain ([3]; Subject 076, Week 92) [Fold Change]	Susceptibility, Fold Change in EC50 relative to reference strain ([3]; Subject 100, Week 1.7) [Fold Change]	Susceptibility, Fold Change in EC50 relative to reference strain ([3]; Subject 169, Week 0.1) [Fold Change]	Susceptibility, Fold Change in EC50 relative to reference strain ([3]; Subject 169, Week 90) [Fold Change]	Susceptibility, Fold Change in EC50 relative to reference strain ([3]; Subject 169, Week 102) [Fold Change]	Subceptibility, Fold Change in EC50 relative to reference strain [3] [Fold Change]	Susceptibility, Fold Change in EC50 relative to reference strain ([3]; Subject 362, Week 0.1) [Fold Change]	Susceptibility, Fold Change in EC50 relative to reference strain ([3]; Subject 362, Week 108) [Fold Change]	percentage of baseline isolates exhibiting a FC≦0.4 [3] [%]	median increase in susceptibility from baseline [3] [fold]	percentage of I50L isolates with susceptibility (FC) 0.4-fold or lower [3] [%]	change in susceptibility [5]	median FC [6]	also measured
O=C1Nc2ccc(Cl)cc2[C@@](C#CC2CC2)(C(F)(F)F)O1 [EFV, efavirenz]	–	–	–	–	–	–	–	–	–	–	–	–	–	–	Virologic Failures (%) [1]: 17%; Virologic Failures, number [1]: 69
CC(C)(C)NC(=O)[C@@H]1CN(Cc2cccnc2)CCN1C[C@@H](O)C[C@@H](Cc1ccccc1)C(=O)N[C@H]1c2ccccc2C[C@H]1O [IDV, indinavir]	0.4	0.5	1.6	0.8	0.5	0.4	0.4	1.3	0.7	0	2.0	58	enhanced susceptibility	small median decreases in susceptibility	susceptibility [2]: remained susceptible; median FC ([3]; {}): ≤ 0.4; effect of I50V on susceptibility [4]: increased susceptibility
Cc1c(O)cccc1C(=O)N[C@@H](CSc1ccccc1)[C@H](O)CN1C[C@H]2CCCC[C@H]2C[C@H]1C(=O)NC(C)(C)C [NFV, nelfinavir]	0.4	0.6	2.1	1.0	0.5	0.5	0.7	2.3	1.1	0	1.6	33	enhanced susceptibility	resistance	Virologic Failures (%) [7]: 23%; Virologic Failures, number [7]: 18; Virologic Failures (%) [8]: 30%; Virologic Failures, number [8]: 27
